# In patent US20250332300A1 (priority 2024, published 2025):
# Structures can show the parent of a compound that is named as a salt. Where two headings read alike, the source gives them in different places. Starred links: 1 amine or outer side, 2 acyl side, 3 side chain; linkers in the order of their positions; H or OH if unused. Positions of bridges follow the written chain, without caps; N, C: chain ends. Non-standard residues stand in square brackets, D forms with d. Residues, ends and D or L forms follow the SMILES beside them. Trp(5-OH) = N[C@@H](Cc1c[nH]c2ccc(O)cc12)C(=O)O; NMePhe(4-F) = CN[C@@H](Cc1ccc(F)cc1)C(=O)O; X1 = O=C([C@H](Cc1cnn2ccccc12)N[*:1])[*:2]; NMehPhe = CN[C@@H](CCc1ccccc1)C(=O)O; NMeAoc(2) = CCCCCC[C@H](NC)C(=O)O; Aad = N[C@@H](CCCC(=O)O)C(=O)O; Gly(cPr) = N[C@H](C(=O)O)C1CC1; Aoc(2) = CCCCCC[C@H](N)C(=O)O; Ahp(2) = CCCCC[C@H](N)C(=O)O; NMeK = CN[C@@H](CCCCN)C(=O)O; NMeDap = CN[C@@H](CN)C(=O)O; NMeS = CN[C@@H](CO)C(=O)O
# Tests used:
# Assay type in all cases: binding
# human HER2 (23-652) [1] = target: T1, human HER2 (23-652) (Homo sapiens, UniProt P04626); assay: Surface plasmon resonance (SPR) for assessment of peptide affinity, human HER2; parameters: towards human HER2 (23-652) and mouse HER2 (23-653); made in house; conditions: SPR, human HER2 extracellular domain, 25° C., 1:1 binding model; read-out: huHER2-SPR-ONC KD
# Outline: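 Binding kinetics fitted from sensorgrams with 280 s peptide association then 3000 s dissociation (30 uL/min), using HER2 (23-652) either directly immobilized (SA/CM5) or anti-Fc-captured; 3 M magnesium chloride used for regeneration.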
# mouse HER2 (23-653) [2] = target: T2, mouse HER2 (23-653) (Mus musculus, UniProt P70424); assay: Surface plasmon resonance (SPR) for assessment of peptide affinity, mouse HER2; parameters: mouse HER2 (23-653) using a Cy5 labeled peptide as a probe; made in house; conditions: SPR, mouse HER2 extracellular domain, 25° C., 1:1 binding model; read-out: moHER2-SPR-ONC KD
# Excerpt: Each protein was immobilized either onto a SA sensorchip (Cytiva, BR-1005-31) or CM5 sensorchip (Cytiva, BR-1005-30) to a density of 800-2000 RU.
# human HER2 (23-652) [3] = target: T1, human HER2 (23-652); assay: TR-FRET competition assay for peptide potency, human HER2; parameters: towards human HER2 (23-652) and mouse HER2 (23-653); made in house; host or cells: mammalian cells; conditions: read-out: huHER2 TR-FRET IC50
# mouse HER2 (23-653) [4] = target: T2, mouse HER2 (23-653); assay: TR-FRET competition assay for peptide potency, mouse HER2; parameters: mouse HER2 (23-653) using a Cy5 labeled peptide as a probe; made in house; host or cells: mammalian cells
# [5] = TR-FRET competition with Cy5 labeled peptide probe, 0.1 nM mouse HER2, 24 h incubation, read-out: moHER2 TR-FRET IC50
Compound,Kd (human HER2 (23-652) [1]) [nM],Kd (mouse HER2 (23-653) [2]) [nM],"IC50 (human HER2 (23-652) [3]; TR-FRET competition with Cy5 labeled peptide probe, 0.1 nM human HER2, 24 h incubation) [nM]",IC50 (mouse HER2 (23-653) [4]; [5]) [nM],"IC50 (mouse HER2 (23-653) [4]; value in parentheses (**): recalculated after further repetition, read-out: moHER2 TR-FRET IC50, recalculated value achieved after further repetition) [nM]",IC50 (human HER2 (23-652) [3]) [nM]
CC(=O)NCCCC[C@H]1C(=O)N[C@@H](Cc2c[nH]c3ccc(O)cc23)C(=O)N[C@@H](Cc2c[nH]c3ccccc23)C(=O)N[C@@H]([C@H](C)O)C(=O)N(C)[C@H](C(=O)N(C)[C@@H](Cc2ccc(F)cc2)C(=O)N[C@@H](CCCCNC(=O)N2CCN(CC(=O)O)CC2)C(=O)N[C@H](CCCCNC(=O)CN2CCN(CC(=O)O)CCN(CC(=O)O)CCN(CC(=O)O)CC2)C(N)=O)CNC(=O)CC[C@H](NC(C)=O)C(=O)N[C@@H](Cc2ccc(O)cc2)C(=O)N[C@@H](CO)C(=O)N(C)[C@@H](CCc2ccccc2)C(=O)N1C [Example C23],47,39,62,76,49,–
"CCCCC[C@@H]1NC(=O)[C@H](Cc2c[nH]c3ccc(O)cc23)NC(=O)[C@H](CCCCNC(C)=O)N(C)C(=O)[C@H](CCc2ccccc2)N(C)C(=O)[C@H](CO)NC(=O)[C@H](Cc2ccc(O)cc2)NC(=O)[C@@H](NC(C)=O)CCCC(=O)NC[C@@H](C(=O)N(C)[C@@H](Cc2ccc(F)cc2)C(N)=O)N(C)C(=O)[C@H](C2CC2)NC1=O [Example A17, (3S,6S,9S,12S,15S,18S,21S,24S,27S)-27-acetamido-15-(4-acetamidobutyl)-N-((S)-1-amino-3-(4-fluorophenyl)-1-oxopropan-2-yl)-6-cyclopropyl-12-((5-hydroxy-1H-indol-3-yl)methyl)-24-(4-hydroxybenzyl)-21-(hydroxymethyl)-N,4,16,19-tetramethyl-5,8,11,14,17,20,23,26,31-nonaoxo-9-pentyl-18-phenethyl-1,4,7,10,13,16,19,22,25-nonaazacyclohentriacontane-3-carboxamide] (Ac-[Aad]YS[NMehPhe][NMeK](Ac)[Trp(5-OH)][Ahp(2)][Gly(cPr)][NMeDap][NMePhe(4-F)]-NH2; lactam 1-9)",> 6000,> 6000,–,> 1000,–,> 1000
"CC(=O)N[C@H]1CCC(=O)NC[C@@H](C(=O)N(C)[C@@H](Cc2ccc(F)cc2)C(N)=O)N(C)C(=O)[C@H](C2CC2)NC(=O)[C@H](Cc2c[nH]c3ccccc23)NC(=O)[C@H](Cc2cnn3ccccc23)NC(=O)[C@H](CO)N(C)C(=O)[C@H](CCc2ccccc2)N(C)C(=O)[C@H](CO)NC(=O)[C@H](Cc2ccc(O)cc2)NC1=O [Example A16, (3S,6S,9S,12S,15S,18S,21S,24S,27S)-9-((1H-indol-3-yl)methyl)-27-acetamido-N-((S)-1-amino-3-(4-fluorophenyl)-1-oxopropan-2-yl)-6-cyclopropyl-24-(4-hydroxybenzyl)-15,21-bis(hydroxymethyl)-N,4,16,19-tetramethyl-5,8,11,14,17,20,23,26,30-nonaoxo-18-phenethyl-12-(pyrazolo[1,5-a]pyridin-3-ylmethyl)-1,4,7,10,13,16,19,22,25-nonaazacyclotriacontane-3-carboxamide]",> 6000,> 6000,–,> 1000,–,> 1000
"CC(=O)N[C@H]1CC(=O)NC[C@@H](C(=O)N(C)[C@@H](Cc2ccc(F)cc2)C(N)=O)N(C)C(=O)[C@H](C2CC2)NC(=O)[C@H](Cc2c[nH]c3ccccc23)NC(=O)[C@H](Cc2c[nH]c3ccc(O)cc23)NC(=O)[C@H](CO)N(C)C(=O)[C@H](CCc2ccccc2)N(C)C(=O)[C@H](CO)NC(=O)[C@H](Cc2ccc(O)cc2)NC1=O [Example A28, (3S,6S,9S,12S,15S,18S,21S,24S,27S)-9-((1H-indol-3-yl)methyl)-27-acetamido-N-((S)-1-amino-3-(4-fluorophenyl)-1-oxopropan-2-yl)-6-cyclopropyl-12-((5-hydroxy-1H-indol-3-yl)methyl)-24-(4-hydroxybenzyl)-15,21-bis(hydroxymethyl)-N,4,16,19-tetramethyl-5,8,11,14,17,20,23,26,29-nonaoxo-18-phenethyl-1,4,7,10,13,16,19,22,25-nonaazacyclononacosane-3-carboxamide] (Ac-DYS[NMehPhe][NMeS][Trp(5-OH)]W[Gly(cPr)][NMeDap][NMePhe(4-F)]-NH2; lactam 1-9)",309,421,–,413,–,223
"CCCCCC[C@@H](C(N)=O)N(C)C(=O)[C@@H]1CNC(=O)CCC[C@H](NC(C)=O)C(=O)N[C@@H](Cc2ccc(O)cc2)C(=O)N[C@@H](CO)C(=O)N(C)[C@@H](CCc2ccccc2)C(=O)N(C)[C@@H](CCCCNC(C)=O)C(=O)N[C@@H](Cc2c[nH]c3ccc(O)cc23)C(=O)N[C@@H](Cc2c[nH]c3ccccc23)C(=O)N[C@@H](C2CC2)C(=O)N1C [Example A13, (3S,6S,9S,12S,15S,18S,21S,24S,27S)-9-((1H-indol-3-yl)methyl)-27-acetamido-15-(4-acetamidobutyl)-N-((S)-1-amino-1-oxooctan-2-yl)-6-cyclopropyl-12-((5-hydroxy-1H-indol-3-yl)methyl)-24-(4-hydroxybenzyl)-21-(hydroxymethyl)-N,4,16,19-tetramethyl-5,8,11,14,17,20,23,26,31-nonaoxo-18-phenethyl-1,4,7,10,13,16,19,22,25-nonaazacyclohentriacontane-3-carboxamide] (Ac-[Aad]YS[NMehPhe][NMeK](Ac)[Trp(5-OH)]W[Gly(cPr)][NMeDap][NMeAoc(2)]-NH2; lactam 1-9)",40,44,–,107,–,46
"CC(=O)N[C@H]1CCC(=O)NC[C@@H](C(=O)N(C)[C@@H](Cc2ccc(F)cc2)C(N)=O)N(C)C(=O)[C@H](C2CC2)NC(=O)[C@H](Cc2cnn3ccccc23)NC(=O)[C@H](Cc2c[nH]c3ccc(O)cc23)NC(=O)[C@H](CO)N(C)C(=O)[C@H](CCc2ccccc2)N(C)C(=O)[C@H](CO)NC(=O)[C@H](Cc2ccc(O)cc2)NC1=O [Example A21, (3S,6S,9S,12S,15S,18S,21S,24S,27S)-27-acetamido-N-((S)-1-amino-3-(4-fluorophenyl)-1-oxopropan-2-yl)-6-cyclopropyl-12-((5-hydroxy-1H-indol-3-yl)methyl)-24-(4-hydroxybenzyl)-15,21-bis(hydroxymethyl)-N,4,16,19-tetramethyl-5,8,11,14,17,20,23,26,30-nonaoxo-18-phenethyl-9-(pyrazolo[1,5-a]pyridin-3-ylmethyl)-1,4,7,10,13,16,19,22,25-nonaazacyclotriacontane-3-carboxamide] (Ac-EYS[NMehPhe][NMeS][Trp(5-OH)][X1][Gly(cPr)][NMeDap][NMePhe(4-F)]-NH2; lactam 1-9)",> 6000,> 6000,–,> 1000,–,> 1000
"CCCCCC[C@@H]1NC(=O)[C@H](Cc2c[nH]c3ccc(O)cc23)NC(=O)[C@H](CCCCNC(C)=O)N(C)C(=O)[C@H](CCc2ccccc2)N(C)C(=O)[C@H](CO)NC(=O)[C@H](Cc2ccc(O)cc2)NC(=O)[C@@H](NC(C)=O)CCCC(=O)NC[C@@H](C(=O)N(C)[C@@H](Cc2ccc(F)cc2)C(N)=O)N(C)C(=O)[C@H](C2CC2)NC1=O [Example A18, (3S,6S,9S,12S,15S,18S,21S,24S,27S)-27-acetamido-15-(4-acetamidobutyl)-N-((S)-1-amino-3-(4-fluorophenyl)-1-oxopropan-2-yl)-6-cyclopropyl-9-hexyl-12-((5-hydroxy-1H-indol-3-yl)methyl)-24-(4-hydroxybenzyl)-21-(hydroxymethyl)-N,4,16,19-tetramethyl-5,8,11,14,17,20,23,26,31-nonaoxo-18-phenethyl-1,4,7,10,13,16,19,22,25-nonaazacyclohentriacontane-3-carboxamide] (Ac-[Aad]YS[NMehPhe][NMeK](Ac)[Trp(5-OH)][Aoc(2)][Gly(cPr)][NMeDap][NMePhe(4-F)]-NH2; lactam 1-9)",> 6000,> 6000,–,> 1000,–,> 1000
"CN1C(=O)[C@H](CO)NC(=O)[C@H](Cc2ccc(O)cc2)NC(=O)[C@@H](N)CCC(=O)NC[C@@H](C(=O)N(C)[C@@H](Cc2ccc(F)cc2)C(N)=O)N(C)C(=O)[C@H](C2CC2)NC(=O)[C@H](Cc2c[nH]c3ccccc23)NC(=O)[C@H](Cc2c[nH]c3ccc(O)cc23)NC(=O)[C@H](CO)N(C)C(=O)[C@@H]1CCc1ccccc1 [Example A35, (3S,6S,9S,12S,15S,18S,21S,24S,27S)-9-((1H-indol-3-yl)methyl)-27-amino-N—((S)-1-amino-3-(4-fluorophenyl)-1-oxopropan-2-yl)-6-cyclopropyl-12-((5-hydroxy-1H-indol-3-yl)methyl)-24-(4-hydroxybenzyl)-15,21-bis(hydroxymethyl)-N,4,16,19-tetramethyl-5,8,11,14,17,20,23,26,30-nonaoxo-18-phenethyl-1,4,7,10,13,16,19,22,25-nonaazacyclotriacontane-3-carboxamide TFA 5 salt]",37,66,–,122,–,53
